Key:
human receptor OR52N2 = target: T1, human receptor OR52N2 (Homo sapiens, UniProt Q8NGI0); test: cell-based dose-response, Ca2+ increase (Calcium 5 dye, FLIPR), HEK293T line stably expressing FLAG-Rho tagged receptor with human Gα15; conditions: FIG. 3, Example 3, SEQ ID NO: 38, stable HEK293T
T1 construct: The receptors were tagged with a FLAG®-Rho tag combination; expressed in transfected cells
T1 sequence (Q8NGI0 1-321): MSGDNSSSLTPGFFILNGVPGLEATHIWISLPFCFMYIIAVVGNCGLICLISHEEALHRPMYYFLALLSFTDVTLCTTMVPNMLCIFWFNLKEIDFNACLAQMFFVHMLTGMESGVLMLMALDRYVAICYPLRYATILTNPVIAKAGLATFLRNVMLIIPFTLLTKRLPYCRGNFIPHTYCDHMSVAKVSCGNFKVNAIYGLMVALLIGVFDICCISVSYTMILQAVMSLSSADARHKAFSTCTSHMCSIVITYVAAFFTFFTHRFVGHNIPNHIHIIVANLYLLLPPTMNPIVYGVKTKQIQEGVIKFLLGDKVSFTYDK
Procedure: (§1) Functional dose-response experiments were performed to evaluate the level of DMTS activity of the modified cell lines expressing individual putative DMTS receptors. A cell line stably expressing a human receptor was generated in a HEK293T cell line for each of the following human receptors: OR2L13, OR4C15, OR5AC2, OR8H3, OR11G2 or OR52N2. The receptors were tagged with a FLAG®-Rho tag combination and stably co-expressed with the human G-protein alpha subunit Gals for the cell based assay. Co-expression of the human Gals activates the Gq transduction pathway that leads to an internal Ca^2+ increase upon binding to the appropriate ligand. Receptors were exposed to increasing concentrations of DMTS. Odorant-induced activity was detected by measuring the Ca^2+ increase in the cytosol using a calcium sensitive fluorescent dye (Molecular Devices, Calcium 5 dye, cat. R8186) and measuring the change in Relative Fluorescence Ratio (RFU) using a fluorometric imaging plate reader (Molecular Devices, FLIPR) following odorant exposure. […] A cell line lacking a receptor was used as a control for non-specific activity at high compound concentrations (‘No receptor’). The activity levels are reported by the potency of the DMTS induced-response for each receptor as a measure of the EC50 value.

human receptor OR8H3 = target: T2, human receptor OR8H3 (Homo sapiens, UniProt Q8N146); test: as above; conditions: FIG. 3, Example 3, SEQ ID NO: 34, stable HEK293T
T2 construct: The receptors were tagged with a FLAG®-Rho tag combination; expressed in transfected cells
T2 sequence (Q8N146 1-312): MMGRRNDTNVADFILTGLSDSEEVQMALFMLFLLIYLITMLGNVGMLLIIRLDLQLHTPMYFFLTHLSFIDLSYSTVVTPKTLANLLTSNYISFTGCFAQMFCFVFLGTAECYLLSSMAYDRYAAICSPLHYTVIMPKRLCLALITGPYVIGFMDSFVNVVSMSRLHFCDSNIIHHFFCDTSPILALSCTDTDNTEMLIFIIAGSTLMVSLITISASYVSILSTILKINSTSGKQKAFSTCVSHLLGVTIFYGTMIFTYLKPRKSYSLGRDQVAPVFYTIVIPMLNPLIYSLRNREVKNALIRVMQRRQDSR
Procedure: as §1

[1] = tested on: human receptors OR2L13, OR4C15, OR5AC2, OR8H3, OR11G2 or OR52N2; test: Ca2+ (Calcium 5 dye, FLIPR) dose-response assay in stable HEK293T cell lines (Example 3); assay type: cell-based; conditions: increasing concentrations of DMTS, co-expressed Galpha15
Procedure: as §1

[2] = tested on: mouse receptor Olfr1193, Olfr1093, Olfr1097, Olrf166, Olfr169, Olfr738 and Olfr742, and human receptor OR4S2 and OR52N5; test: cAMP HTRF dose-response assay in HEK293T cells expressing odorant receptors (Example 2); assay type: cell-based; conditions: increasing concentrations of odorant, receptors co-transfected with human Golf
human receptor OR52N5 = target: T3, human receptor OR52N5 (Homo sapiens, UniProt Q8NH56); test: cell-based dose-response, cAMP increase by HTRF, HEK293T cells (endogenous RTP1 activated) co-transfected with human Golf, Rho-FLAG tagged receptor; conditions: FIG. 2, Example 2, SEQ ID NO: 24
T3 construct: the human receptors were tagged with a Rho-FLAG® tag combination; expressed in transfected cells
T3 sequence (Q8NH56 1-324): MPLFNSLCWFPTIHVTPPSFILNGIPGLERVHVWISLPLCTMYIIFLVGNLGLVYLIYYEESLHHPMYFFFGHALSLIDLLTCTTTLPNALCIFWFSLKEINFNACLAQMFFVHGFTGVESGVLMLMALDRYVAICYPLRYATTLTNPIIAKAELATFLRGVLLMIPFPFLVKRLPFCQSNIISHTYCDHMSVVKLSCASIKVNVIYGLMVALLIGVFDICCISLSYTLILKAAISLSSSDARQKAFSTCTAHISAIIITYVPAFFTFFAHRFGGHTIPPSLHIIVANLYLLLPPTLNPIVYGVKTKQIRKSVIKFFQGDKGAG
Procedure: (§2) Functional dose-response experiments were performed to evaluate the level of DMTS activity of the modified cell line expressing individual putative DMTS receptors. Using a cell-based assay, mouse receptor Olfr1193, Olfr1093, Olfr1097, Olrf166, Olfr169, Olfr738 and Olfr742, and human receptor OR4S2 and OR52N5 were tested in an HEK293T cell line wherein the endogenous RTP1 gene has been activated and the odorant receptor chaperone protein was expressed (described in WO2016/201153). The mouse receptor genes were tagged with a Lucy-FLAG®-Rho tag combination and the human receptors were tagged with a Rho-FLAG® tag combination resulting in a tag:receptor fusion protein for the cell based assay. Receptor genes were co-transfected with the canonical olfactory human G-protein alpha subunit Golf gene and were exposed to increasing concentrations of the malodor odorant. Co-expression of the human Golf activates the Gs transduction pathway that leads to an internal cAMP increase upon binding to the appropriate ligand. Odorant-induced activity was detected by measuring the cAMP increase in the cytosol using an Homogeneous Time Resolved Fluorescence (HTRF) based kit (CisBio, cAMP dynamic 2 kit, cat. 62AM4PEJ). […]

[3] = tested on: cells that do not express the odorant receptors (HEK293T); test: Mock transfection control experiment (Example 5); assay type: cell-based
Procedure: as §2

`CSSSC` [DMTS, dimethyl trisulfide] was tested, and the EC50 (human receptor OR52N2) was 5 µM, the EC50 (human receptor OR8H3) was 62 µM and the “receptor activity (Ca2+ increase in the cytosol, RFU)” value [1] was “dose-dependent increase of receptor activity”. The “receptor activity (cAMP increase in the cytosol)” value [2] was “dose-dependent increase of the receptor activity”, the EC50 (human receptor OR52N5) was 10 µM and the “activity upon exposure in mock transfected cells” value [3] was “did not show activity”.
